Measured values: PMC7056649 (Heliyon, 2020)
pIC50, pKi: −log10 of the molar value.

How the values were obtained:
[1] = tested on: membrane-bound α-glucosidases on differentiated Caco-2 cells; assay: Membrane bound α-glucosidase inhibitory activity in differentiated Caco-2 cells; assay type: cell-based, human; conditions: 25 mM maltose, 0.1-100 μg/ml, 4 h; comparison in words
[2] = molecular target: Saccharomyces cerevisiae α-glucosidase (Saccharomyces cerevisiae, UniProt P53341); assay: α-Glucosidase inhibitory activity and kinetic analysis; assay type: biochemical; conditions: for pKi: Ki, yeast α-glucosidase hydrolysis of PNPG; for Mode of Inhibition: PNPG substrate, determined by Lineweaver-Burk plots
[3] = molecular target: T1, porcine pancreatic α-amylase (Sus scrofa, UniProt P00690); assay: α-Amylase inhibitory activity; assay type: biochemical; conditions: up to 600 μg/mL
T1 sequence (P00690 16-511): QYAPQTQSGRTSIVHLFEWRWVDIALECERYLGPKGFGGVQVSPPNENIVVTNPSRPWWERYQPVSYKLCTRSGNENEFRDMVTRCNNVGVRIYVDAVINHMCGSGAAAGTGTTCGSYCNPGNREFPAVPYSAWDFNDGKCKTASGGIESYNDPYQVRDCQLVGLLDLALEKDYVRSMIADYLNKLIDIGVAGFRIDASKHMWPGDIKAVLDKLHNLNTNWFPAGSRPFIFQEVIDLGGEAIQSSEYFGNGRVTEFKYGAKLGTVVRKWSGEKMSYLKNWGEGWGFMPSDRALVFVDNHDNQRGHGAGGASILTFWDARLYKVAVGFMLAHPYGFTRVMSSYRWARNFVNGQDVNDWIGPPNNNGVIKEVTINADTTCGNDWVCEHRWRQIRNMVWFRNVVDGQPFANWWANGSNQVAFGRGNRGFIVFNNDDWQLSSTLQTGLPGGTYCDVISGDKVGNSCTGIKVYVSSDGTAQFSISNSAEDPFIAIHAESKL

Caco-2 cells = conditions: ref Ahn et al., 2017, Mei et al., 2012; cited from earlier work

Saccharomyces cerevisiae α-glucosidase, sequence (P53341 whole entry): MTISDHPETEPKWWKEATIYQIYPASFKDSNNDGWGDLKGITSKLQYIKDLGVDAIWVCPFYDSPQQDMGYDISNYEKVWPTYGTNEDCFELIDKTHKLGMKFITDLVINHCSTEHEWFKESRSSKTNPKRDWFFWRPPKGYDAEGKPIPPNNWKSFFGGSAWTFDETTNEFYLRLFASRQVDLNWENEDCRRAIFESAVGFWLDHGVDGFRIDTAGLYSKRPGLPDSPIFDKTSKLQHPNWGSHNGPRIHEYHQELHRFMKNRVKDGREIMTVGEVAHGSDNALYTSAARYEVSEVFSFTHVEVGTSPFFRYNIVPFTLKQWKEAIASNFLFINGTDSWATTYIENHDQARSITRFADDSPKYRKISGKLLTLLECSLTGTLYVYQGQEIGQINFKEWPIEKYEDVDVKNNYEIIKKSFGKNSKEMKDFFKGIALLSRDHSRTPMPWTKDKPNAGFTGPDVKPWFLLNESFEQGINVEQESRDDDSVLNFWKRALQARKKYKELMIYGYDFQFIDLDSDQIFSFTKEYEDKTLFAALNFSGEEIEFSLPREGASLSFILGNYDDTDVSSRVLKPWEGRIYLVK

Structure (SMILES)	inhibition of maltose hydrolysis in differentiated Caco-2 cells [1]	pIC50 ([2]; IC50, substrate PNPG)	pKi ([2]; Dixon plots, value in brackets)	pKi ([2]; determined by Dixon plots)	Mode of Inhibition [2]	Mode of Inhibition ([2]; listed as oxyresveratrol)	inhibition of α-amylase [3]	re-export rate from Caco-2 cells (Caco-2 cells)
C[C@H]1O[C@H](O[C@H]2[C@H](O)[C@@H](O)[C@@H](O[C@H]3[C@H](O)[C@@H](O)C(O)O[C@@H]3CO)O[C@@H]2CO)[C@H](O)[C@@H](O)[C@@H]1N[C@H]1C=C(CO)[C@@H](O)[C@H](O)[C@H]1O (stereo partly drawn) [Acarbose, acarbose, reference compound]	far more susceptible to acarbose							
Oc1cc(O)cc(/C=C/c2ccc(O)cc2O)c1 [Oxyresveratrol, trans-3,5,2′,4′-tetrahydroxystilbene]	lesser potency compared to acarbose	3.69	3.65	3.65	Non-competitive	non-competitively	no detectable inhibition	high
